Data published in patent US20080318960A1, “PAR2-modulating compounds and their use” (priority 2005, published 2008).
pEC50: −log10 of the molar value.

Columns and labels:
Format in all cases: cell-based
human PAR2 [1] = target: T1, human PAR2 (Homo sapiens, UniProt P55085); experiment: Receptor Selection and Amplification Technology (R-SAT) functional receptor assay; set-up: expressed in transfected cells; host or cells: NIH3T3 cells, pSI-derived mammalian expression vector; conditions: for pEC50: NIH3T3 cells transfected with PAR2, PAR2 activation, negative log of EC50 in Molar; for Emax: NIH3T3 cells transfected with PAR2, percent maximal activation relative to SLIGRL, read-out: % Efficacy
T1 sequence (P55085 26-397): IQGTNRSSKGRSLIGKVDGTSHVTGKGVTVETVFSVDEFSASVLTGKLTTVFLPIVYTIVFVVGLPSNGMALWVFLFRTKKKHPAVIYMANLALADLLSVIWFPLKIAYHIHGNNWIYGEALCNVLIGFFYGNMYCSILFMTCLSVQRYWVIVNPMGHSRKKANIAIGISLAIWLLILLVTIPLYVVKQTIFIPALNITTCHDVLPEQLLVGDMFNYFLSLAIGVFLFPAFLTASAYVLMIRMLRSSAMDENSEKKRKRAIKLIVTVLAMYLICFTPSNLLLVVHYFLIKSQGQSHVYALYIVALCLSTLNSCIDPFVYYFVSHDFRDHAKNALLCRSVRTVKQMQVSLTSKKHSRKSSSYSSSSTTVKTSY
Procedure: The functional receptor assay, Receptor Selection and Amplification Technology (R-SAT), was used to investigate the pharmacological properties of known and novel PAR2 compounds. R-SAT is disclosed in U.S. Pat. Nos. 5,707,798, 5,912,132, and 5,955,281, all of which are hereby incorporated herein by reference in their entirety, including any drawings.
Briefly, NIH3T3 cells were grown in 96 well tissue culture plates to 70-80% confluence. Cells were transfected for 16-20 h with plasmid DNAs using Polyfect (Qiagen Inc.) as per manufacturer's protocols. R-SATs were generally performed with 4 ng/well of receptor and 20 ng/well of β-galactosidase plasmid DNA. All receptor constructs used were in the pSI-derived mammalian expression vector (Promega Inc) as described previously. The PAR2 gene was amplified by PCR from genomic DNA using oligodeoxynucleotide primers based on the published sequence (GenBank Accession # Z49993 and Z49994). For large-scale transfections, cells were transfected for 16-20 h, then trypsinized and frozen in DMSO. Frozen cells were later thawed, plated at ˜10,000 cells per well of a 96 half-area well plate that contained drug. With both methods, cells were then grown in a humidified atmosphere with 5% ambient CO2 for five days. Media was then removed from the plates and marker gene activity was measured by the addition of the β-galactosidase substrate o-nitrophenyl β-D-galactopyranoside (ONPG, in PBS with 0.5% NP-40). The resulting colorimetric reaction was measured in a spectrophotometric plate reader (Titertek Inc.) at 420 nm. All data were analyzed using the computer program XLFit (IDBSm). Efficacy is the percent maximal activation compared to activation by a control compound, the PAR2 activating hexapeptide SLIGRL (serine-leucine-isoleucine-glycine-arginine-leucine). pEC50 is the negative of the log (EC50), where EC50 is the calculated concentration in Molar that produces 50% maximal activation.
These experiments provide a molecular profile, or fingerprint, for each of these agents at human PAR2.
Efficacy is relative to that of SLIGRL.

human PAR2 [2] = target: T1, human PAR2; experiment: Determination of changes in cytosolic calcium in transfected CHO-K1 cells; conditions: intracellular calcium mobilization; for pEC50: CHO-K1 cells transfected with PAR2, Fura-2; for Emax: CHO-K1 cells transfected with PAR2, response compared to SLIGRL at 100 nM, read-out: % Efficacy
Procedure: 1. CHO-K1 cells transfected with PAR2 or a control receptor at a density 1-3×10^6 cells/ml are washed with phosphate-buffered saline.
2. Cells are loaded with 2 μM Fura-2 and analyzed with respect to the rise in intracellular calcium in the presence or absence of varying concentration of compound.
3. The response is compared to that elicited by the application of the standard reference ligand SLIGRL when tested at 100 nM.
Intracellular free calcium concentrations are calculated using the formula:
where Kd for Fura-2 is 224 nM, Fmax is the fluorescence in the presence of 0.04% Triton-X100 and Fmin is the fluorescence obtained after the addition of 5 mM EGTA in 30 mM Tris-HCl, pH7.4.
As shown in Table 2 and FIG. 3, these experiments have shown these agents act at human PAR2 to stimulate intracellular calcium mobilization.

human PAR2 [3] = target: T1, human PAR2; experiment: Determination of changes in inositol phosphates in transfected tsA cells; conditions: inositol phosphate hydrolysis, transfected tsA cells (transformed HEK293), 45 min with ligand; for Emax: TS/A, read-out: % Efficacy
Procedure: Seed tsA cells (a transformed HEK293 cell line) at 10,000 cells/0.1 ml per well of 96 well plates at 37 C in a humidified 5% CO2 incubator in DMEM supplemented with 10% fetal calf serum, penicillin (100 units/ml) and streptomycin ([…]) and grown overnight.
Transfect the cells with plasmid DNAs coding receptors or G-protein helpers when needed using PolyFect according to the RSAT protocol described previously. At 18-20 h post-transfection, the medium is removed and the cells are labeled overnight with 2 uCi/ml myo-[2-3H] inositol (0.1 ml/well) freshly made in the culture medium.
Remove the medium and wash cells with Hank's Balanced Salt Solutions (HBSS) containing 1 mM CaCl2, 1 mM MgCl2, 20 mM LiCl and 0.1% BSA. The cells are then incubated with ligands for 45 min at 37 C (0.1 ml/well) and the reaction is stopped by exchanging the buffer with 150 ul/well ice-cold 20 mM formic acid. Add 50 ul/well 0.2M ammonium and store plates at −80 C or process samples immediately.
To separate total [3H] inositol phosphates (IPs) ion-exchange chromatography columns are loaded with 200 ul of AG 1-X8 resin suspension (50% resin and 50% water) and the cell extracts were applied to the columns. Wash the columns with 1 ml 40 mM ammonium hydroxide (pH9) and elute [3H] IPs into the 2 ml deep-well blocks with 0.4 ml 2M ammonium format/0.1M formic acid. Wash the columns with 0.6 ml water. Transfer the eluates into 7 ml scintillation vials and add 5 ml liquid scintillation cocktail. Mix well, leave the vials in the dark for at least 4 h and count on LS 6500 Multi-purpose Scintillation Counter (3 min/vial). This procedure collects IP1, IP2 and IP3.
As shown in Table 3 and FIG. 4, these experiments have shown these agents act at human PAR2 to stimulate inositol phosphate hydrolysis.

Row | Structure (SMILES) | pEC50 (human PAR2 [1]) | Emax (human PAR2 [1]) | pEC50 (human PAR2 [2]) | Emax (human PAR2 [2]) | Emax (human PAR2 [3]) | pEC50 (human PAR2 [3])
1 | CC/C(=N\NC(=O)C(NC(=O)c1ccccc1)c1n[nH]c(=O)c2ccccc12)c1cccc(Br)c1 (stereo not drawn) [Compound 25, N-[2-{(2E)-2-[1-(3-bromophenyl)propylidene]hydrazino}-2-oxo-1-(4-oxo-3,4-dihydro-1-phthalazinyl)ethyl]benzamide] | 6.30 | 111% |  |  |  | 
2 | COc1cccc(/C(C)=N/NC(=O)C(NC(=O)c2ccccc2)c2n[nH]c(=O)c3ccccc23)c1 (stereo not drawn) [Compound 6, N-[2-{(2E)-2-[1-(3-methoxyphenyl)ethylidene]hydrazino}-2-oxo-1-(4-oxo-3,4-dihydro-1-phthalazinyl)ethyl]benzamide] | 6.10 | 79% |  |  |  | 
3 | C/C(=N\NC(=O)C(NC(=O)c1ccccc1)c1n[nH]c(=O)c2ccccc12)c1cccc(C(F)(F)F)c1 (stereo not drawn) [Compound 27, N-[2-oxo-1-(4-oxo-3,4-dihydro-1-phthalazinyl)-2-((2E)-2-{1-[3-(trifluoromethyl)phenyl]ethylidene}hydrazino)ethyl]benzamide] | 6.60 | 77% |  |  |  | 
4 | C/C(=N\NC(=O)C(NC(=O)c1ccccc1)c1n[nH]c(=O)c2ccccc12)c1cccc(C#N)c1 (stereo not drawn) [Compound 29, N-[2-{(2E)-2-[1-(3-cyanophenyl)ethylidene]hydrazino}-2-oxo-1-(4-oxo-3,4-dihydro-1-phthalazinyl)ethyl]benzamide] | 6.50 | 132% |  |  |  | 

Second part, the molecule after the results:

Row | pEC50 (human PAR2 [1]) | Emax (human PAR2 [1]) | pEC50 (human PAR2 [2]) | Emax (human PAR2 [2]) | Emax (human PAR2 [3]) | pEC50 (human PAR2 [3]) | Structure (SMILES)
5 | 7.10 | 122% | 5.10 | 85% | 130% | 5.00 | C/C(=N\NC(=O)C(NC(=O)c1ccccc1)c1n[nH]c(=O)c2ccccc12)c1cc(C)cc(C)c1 (stereo not drawn) [Compound 43, N-[2-{(2E)-2-[1-(3,5-dimethylphenyl)ethylidene]hydrazino}-2-oxo-1-(4-oxo-3,4-dihydro-1-phthalazinyl)ethyl]benzamide]
6 | 6.90 | 98% | 5.40 | 72% | 120% | 5.60 | C/C(=N\NC(=O)C(NC(=O)c1ccccc1)c1n[nH]c(=O)c2ccccc12)c1cccc(Br)c1 (stereo not drawn) [Compound 3, N-[2-{(2E)-2-[1-(3-bromophenyl)ethylidene]hydrazino}-2-oxo-1-(4-oxo-3,4-dihydro-1-phthalazinyl)ethyl]benzamide]
7 | 6.80 | 112% |  |  |  |  | C/C(=N\NC(=O)C(NC(=O)c1ccccc1)c1n[nH]c(=O)c2ccccc12)c1cccc(Cl)c1 (stereo not drawn) [Compound 28, N-[2-{(2E)-2-[1-(3-chlorophenyl)ethylidene]hydrazino}-2-oxo-1-(4-oxo-3,4-dihydro-1-phthalazinyl)ethyl]benzamide]
8 | 6.50 | 118% |  |  |  |  | C/C(=N\NC(=O)C(NC(=O)c1ccccc1)c1n[nH]c(=O)c2ccccc12)c1cccc(C)c1 (stereo not drawn) [Compound 31, N-[2-{(2E)-2-[1-(3-methylphenyl)ethylidene]hydrazino}-2-oxo-1-(4-oxo-3,4-dihydro-1-phthalazinyl)ethyl]benzamide]
